Test results taken from US20250073292A1, “PELARGONIUM GRAVEOLENS EXTRACT FOR THE TREATMENT OF TRAUMATIC BRAIN INJURIES” (priority 2021, published 2025).

Tests used:
[1] = test system: mice subjected to closed head injury (CHI); experiment: Barnes maze (BM) acquisition, recall and exploration strategies after CHI; assay type: in vivo; conditions: 2 weeks after the trauma, 3 days after the last treatment; 125 mg/kg or 50 mg/kg (both doses), gavage, 9 treatments
Method: At 1 h after CHI, the NSS is evaluated.
• The BM test is based on the instinct of the mouse to hide when exposed to environmental disturbances and is used to test spatial learning and memory. The maze consists of an elevated circular platform with holes in the perimeter and a small dark hidden goal box. Bright light and aversive noise (85 dB) force the animals to escape from the open platform surface to find the hole under which the dark chamber (21×22×21 cm), “target goal box,” is located. Visual cues of different colors and shapes are placed around the room. The mouse was placed under a cylindrical black start chamber at the center of the maze. […] For the probe trial, the latency to reaching the escape box first are recorded. • The Barnes maze test was performed: • 1) Between days 14-17 (2 weeks) plus a recall test on days 18 and 25 after injury, for a total round of 6. • 2) Between days 54-57 (2 months) plus a recall test on days 58 and 65 after injury for a total round of 2. • 3) Between days 183-186 (6 months) plus a recall test on days 187 and 194 after injury for a total round of 2. • 4) Between days 277-280 (9 months) plus a recall test on days 281 and 288 after injury for a total round of 1. • The captured videos were analyzed with Ethovision XP10 software (Noldus, The Netherlands) for later evaluation of the strategies used to locate the target box. […]

acetyl choline esterase = acetyl choline esterase (Homo sapiens, UniProt P22303); conditions: WO 2013/168090 [10]; cited from earlier work
Chain of acetyl choline esterase (P22303 32-614): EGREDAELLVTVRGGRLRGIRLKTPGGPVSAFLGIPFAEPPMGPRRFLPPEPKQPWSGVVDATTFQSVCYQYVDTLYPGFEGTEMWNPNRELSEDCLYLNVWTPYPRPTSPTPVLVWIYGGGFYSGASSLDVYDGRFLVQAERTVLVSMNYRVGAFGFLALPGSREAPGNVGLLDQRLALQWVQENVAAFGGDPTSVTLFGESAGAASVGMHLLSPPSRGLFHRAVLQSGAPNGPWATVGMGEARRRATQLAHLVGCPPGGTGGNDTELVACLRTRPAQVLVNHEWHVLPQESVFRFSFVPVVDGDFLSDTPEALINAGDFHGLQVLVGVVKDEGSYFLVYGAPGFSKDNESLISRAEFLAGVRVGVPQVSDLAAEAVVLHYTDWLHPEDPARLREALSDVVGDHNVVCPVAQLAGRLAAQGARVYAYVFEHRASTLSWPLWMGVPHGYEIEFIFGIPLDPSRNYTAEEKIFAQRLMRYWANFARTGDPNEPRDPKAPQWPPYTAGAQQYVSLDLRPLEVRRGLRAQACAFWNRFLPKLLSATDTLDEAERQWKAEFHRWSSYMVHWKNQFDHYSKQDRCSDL

## CC(C)=CCCC(C)CCO (centres unmarked) [Citronellol, citronellol]
[1]
  Barnes maze acquisition, learning curve: A significant improvement in the learning curve

## CC(C)=CCC[C@H](C)CCO [(S) (−) citronellol]
Acetyl choline esterase
  Activity of the enzyme acetyl choline esterase in vitro: inhibits
